Results reported in patent US20080152644A1, “Genes Involved in Neurodegenerative Conditions” (priority 2005, published 2008).

Assays:
Assay type in all cases: in vivo, Drosophila
[1] = tested on: transgenic flies expressing A-beta42; experiment: Climbing assay (locomotor activity) of RAD001 fed flies expressing A-beta42; details: RAD001 fed flies at 21 day, compared to placebo fed flies; data not shown
Text: For the locomotion assay, 20 flies of each experimental genotype were scored at 3, 10 and 15 days of age. Flies were transferred to fresh vials, tapped down and recorded for a few minutes until their climbing came to an equilibrium.
In order to analyze locomotion activity, we used a “climbing assay” (Le Bourg E, Lints F A. (1992). Hypergravity and aging in Drosophila melanogaster. 4. Climbing activity. Gerontology. 38:59-64), which measures the negative geotropic response that flies naturally display. Groups of flies at different stages of adult life (3, 10, 15 days) from experimental and control groups were assayed. […] Three different UAS-A-beta42 strains were used, expressing different amounts of A-beta42 peptide (A-beta42^H29.3, A-beta42^HJ2.12, A-beta42^HJ2.19). Strains A-beta42^HJ2.12 and A-beta42^HJ2.19 express higher levels of the peptide than strain A-beta42^H29.3.
If successful, this treatment would provide the same beneficiary effect on A-beta42 induced toxicity found through genetic modification. Flies expressing A-beta42 were fed every three days with 10 uM, 20 uM, 30 uM and 60 uM (where uM=10^−6 M) concentration of RAD001. Lifespan was scored until all the RAD001 fed flies died. The climbing assay was performed on RAD001 fed flies at 21 day, and compared to placebo fed flies.

[2] = tested on: transgenic flies expressing A-beta42; experiment: Lifespan of transgenic flies expressing A-beta42 fed RAD001; details: fed every three days with 10, 20, 30 and 60 uM RAD001; effect seen even at the lowest concentration; FIG. 7
Procedure: Flies were maintained in corn meal based standard fly food (Ashburner, 1989). Parental crosses were set up at 25° C. and F1 progeny was collected and raised at 29° C. (FIG. 1). Flies are crossed and maintained at 25° C. according to conventional methods except that all progeny are kept at 29° C. for maximal expression of phenotypes. In the binary Gal4 expression system, this temperature maximizes activity of the Gal4 protein. In the case of ElavGal4C^155/UAS-A-beta42, it is observed that the phenotype is stronger at 29° C., so these flies are kept at this temperature as well.
For 2nd and 3rd chromosome P-element strains, crosses were set using male flies (about 10) from the P-element strain and virgin females (about 10) from the A-beta42 over-expressing strain (ElavGal4C^155/UAS-A-beta42). For X-chromosome P strains, about 10 virgin females were collected from individual P strains and mated with 10 males from the A-beta over-expressing strain. […] 10 vials with 20 progeny from each cross were kept at 29° C. and scored for viability and behavior phenotypes as well as for general morphological changes. For scoring, live flies were transferred to fresh vials and the dead flies were counted every 2-3 days. […]
If successful, this treatment would provide the same beneficiary effect on A-beta42 induced toxicity found through genetic modification. […] Lifespan was scored until all the RAD001 fed flies died. […]

A-beta42 = experiment: Sandwich ELISA of A-beta42 extracted from heads of transgenic flies fed RAD001; details: FIG. 8
Procedure: Antibodies: Mouse monoclonal antibody directed to the NH2 terminus of the A-beta peptide was used as the capture antibody (Biosource Cat#44-352-100). The antibody was diluted in 1×PBS 1:2900 (3.5 μl/10 ml) and applied to Maxisorb Plates (Nunc Cat#442404) and 100 ul/96 well or 50 μl/384 well by incubating overnight at 4C. Polyclonal detection antibodies were obtained from Biosource (anti-hA-beta40 Cat#44-348 and anti-hA-beta42 Cat#44-344) and diluted 1/2000 in 1% BSA/PBS […]. The tertiary antibody (Santa Cruz Cat# SC2313) was a horseradish peroxidase labeled anti-rabbit IgG (Diluted 1/5000 in 1% BSA/PBS).
Preparation of the A-beta standards: 2.31 g of sodium bicarbonate was dissolved in 500 mL of distilled water and the pH was adjusted to 9.0 with 2N sodium hydroxide. […]
Indirect Two Sandwich ELISA: After the overnight incubation with capture antibody the plates were washed twice on a microplate washer (Bioteck Instruments, Inc) in 1×PBS/0.05% Tween 20/1 mM EDTA). […] The plates were read on a microplate reader at […] (Molecular Devices, Inc.) within one hour.
The amount of A-beta42 from the heads of aged flies expressing A-beta42 was measured to see whether inactivation or reduced activation of Tor function affects the amount of A-beta42, such that it would correlate with the amelioration of A-beta42 induced toxicity. […]

## CO[C@H]1C[C@@H]2CC[C@@H](C)[C@@](O)(O2)C(=O)C(=O)N2CCCC[C@H]2C(=O)O[C@H]([C@H](C)C[C@@H]2CC[C@@H](OCCO)[C@H](OC)C2)CC(=O)[C@H](C)/C=C(\C)[C@@H](O)[C@@H](OC)C(=O)[C@H](C)C[C@H](C)/C=C/C=C/C=C/1C [RAD001]
[1]
  locomotor defect (climbing assay): partially abrogated
[2]
  lifespan of flies expressing A-beta42: partial rescue of lifespan
A-beta42; flies dosed with 60 uM RAD001, heads of 13 day old flies
  total A-beta42: pronounced decrease
A-beta42; heads of 13 day old flies fed 10-60 uM RAD001 every three days, normalized to total protein, vs placebo
  reduction of the amount of soluble A-beta42: up to 42%
